The text below walks through data of patent US20170189416A1, “PHARMACEUTICAL COMPOSITION FOR TREATING BREAST CANCER” (MA SHEN KAI RUEi CO., LTD., priority 2015, published 2017).

One test deals with MCF-7. The test is described as follows: MTT survival assay on human breast-cancer cells MCF-7. The class given is cell-based. The conditions noted are these: MCF-7, MTT assay, isolated compound. The source says:
(§1) According to the present invention, the effects such as treating breast cancer, inhibiting the growth of breast cancer cell and others, of Antroquinonol B (AnQB) and/or dehydroeburicoic acid (DeHBA) may be tested by using any of the test methods used in the prior arts, for example, MTT assay of using 3-(4,5-dimethylthiazol-2-yl)-2, S-diphenyl tetrazolium bromide (MTT) to determine cell survival rates of breast cancer cell lines.
(§2) The Antroquinonol B (AnQB) and dehydroeburicoic acid (DeHBA) separately isolated from the Extraction A of Example 1 were added into the culture media of human breast-cancer cells, MCF-7 or MDA-MB-231, to test for tumor cell survival by using anti-cancer drug screen model. This survival assay was carried out with the widely known MTT (3-[4,5-dimethylthiazol-2-yl]2,5-diphenyltetrazolium bromide) assay.
(§3) MCF-7 cell line (purchased from B CRC) is originated from primary breast cancer cells (early stage), sensitive to estrogen and therefore is estrogen-dependent, while MDA-MB-231 is insensitive to estrogen and therefore is estrogen-independent, which is a difficult tumor with a low survival rate.
(§4) The human breast-cancer cells, MCF-7 and MDA-MB-231 were cultivated in media containing fetal calf serum for 36 hours. The proliferated cells were washed once with PBS, then treated with 1× trypsin-EDTA and centrifuged at 2000 rpm for 25 minutes. The supernatant was discarded and the cell pellet was re-suspended in 30 ml of fresh culture medium by gently shaking. The cells were placed in a 96-well plate.
(§5) Subsequently, the plates were read on an ELISA reader to determine the survival rates. The half maximal inhibitory concentration (IC50) values were calculated and results of ex vivo survival assay were thus obtained.
(§6) By using the same manner as the method described above, respectively human breast cancer cell line MCF-7 and MDA-MB-231 was cultured. After then, the pharmaceutical compositions A˜F of the present invention was applied separately, and then MTT assay for each sample was measured to assess the inhibition effectiveness of various cancer cell activity while using pharmaceutical compositions A˜F of the present invention.

The next test deals with MDA-MB-231. The test is described as follows: MTT survival assay on human breast-cancer cells MDA-MB-231. Type of test: cell-based. The conditions noted are these: MDA-MB-231, MTT assay, isolated compound.
Text: as §1, §2, §3, §4, §5, §6

Molecules are shown by their SMILES. “Also recorded” adds a separate entry of the source.

Turning to `COC1=C(OC)[C@H](O)[C@H](C/C=C(\C)CC/C=C(/C)C/C=C/C(C)(C)O)[C@@H](C)C1=O` [Antroquinonol B], in the test on MCF-7, the “half-maximal inhibitory concentration (IC50)” value is recorded as “relatively low” and the “survival rate of breast cancer cell line” value is recorded as “can inhibit the growth of breast cancer cell; also recorded: can decrease the survival rates”. In the test on MDA-MB-231, the “half-maximal inhibitory concentration (IC50)” value was “relatively low” and the “survival rate of breast cancer cell line” value is given as “can inhibit the growth of breast cancer cell; also recorded: can decrease the survival rates”.
Consider `C=C(CC[C@@H](C(=O)O)[C@H]1CC[C@@]2(C)C3=CC[C@H]4C(C)(C)[C@@H](O)CC[C@]4(C)C3=CC[C@]12C)C(C)C` [dehydroeburicoic acid], for which, in the test on MCF-7, the “half-maximal inhibitory concentration (IC50)” value is recorded as “relatively low” and the “survival rate of breast cancer cell line” value is reported as “can inhibit the growth of breast cancer cell; also recorded: can decrease the survival rates”. Also, in the test with MDA-MB-231, the “half-maximal inhibitory concentration (IC50)” value was “relatively low” and the “survival rate of breast cancer cell line” value is given as “can inhibit the growth of breast cancer cell; also recorded: can decrease the survival rates”.
